PMC6529423, “The extracellular gate shapes the energy profile of an ABC exporter” (Nature Communications, 2019)

Molecular target: T1, EfrEF (Enterococcus faecalis, UniProt Q832J9+Q832K0)
T1 construct: gene EF_2226; heterodimeric ABC exporter, expressed in Lactococcus lactis NZ9000 from pNZ8048NH3, purified in DDM, reconstituted in proteoliposomes
Experiment: ATPase stimulation in proteoliposomes; also ethidium efflux from L. lactis cells
Type: biochemical
Details: 1 mM ATP, 10 mM MgSO4, 50 mM HEPES pH 7.0, 30 °C; stimulator of ATPase

T1 sequence (Q832K0 entry or part of it): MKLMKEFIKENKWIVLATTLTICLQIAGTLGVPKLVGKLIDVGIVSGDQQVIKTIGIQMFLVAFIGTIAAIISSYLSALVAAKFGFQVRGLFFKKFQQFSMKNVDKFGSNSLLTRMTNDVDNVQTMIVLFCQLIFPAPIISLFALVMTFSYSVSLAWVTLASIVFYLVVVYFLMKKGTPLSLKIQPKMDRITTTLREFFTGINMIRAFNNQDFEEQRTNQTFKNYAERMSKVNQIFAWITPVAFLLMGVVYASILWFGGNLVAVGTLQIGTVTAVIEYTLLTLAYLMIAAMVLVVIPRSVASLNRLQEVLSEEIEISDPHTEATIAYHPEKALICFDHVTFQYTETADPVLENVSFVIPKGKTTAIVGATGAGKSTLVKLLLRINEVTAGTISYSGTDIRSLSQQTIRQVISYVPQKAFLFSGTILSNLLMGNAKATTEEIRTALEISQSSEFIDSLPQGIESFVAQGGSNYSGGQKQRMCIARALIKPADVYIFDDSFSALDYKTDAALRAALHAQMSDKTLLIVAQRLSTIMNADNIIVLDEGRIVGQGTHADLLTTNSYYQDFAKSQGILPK
T1 sequence (Q832J9 entry or part of it): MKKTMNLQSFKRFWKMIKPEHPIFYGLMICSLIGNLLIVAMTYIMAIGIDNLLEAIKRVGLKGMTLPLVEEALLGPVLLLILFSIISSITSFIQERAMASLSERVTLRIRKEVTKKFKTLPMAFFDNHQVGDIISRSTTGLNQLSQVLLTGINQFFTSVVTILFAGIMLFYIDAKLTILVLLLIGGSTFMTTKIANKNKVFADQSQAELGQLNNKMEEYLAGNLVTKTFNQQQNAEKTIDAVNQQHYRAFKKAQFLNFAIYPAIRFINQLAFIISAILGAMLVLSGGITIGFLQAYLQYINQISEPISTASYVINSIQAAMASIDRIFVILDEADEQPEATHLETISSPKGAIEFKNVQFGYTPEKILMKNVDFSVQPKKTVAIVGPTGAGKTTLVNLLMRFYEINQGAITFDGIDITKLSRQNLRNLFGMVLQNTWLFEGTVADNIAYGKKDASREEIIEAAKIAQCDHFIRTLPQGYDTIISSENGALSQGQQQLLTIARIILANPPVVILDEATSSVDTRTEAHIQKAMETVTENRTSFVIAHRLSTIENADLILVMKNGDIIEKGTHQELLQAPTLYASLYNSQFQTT

CC[n+]1c(-c2ccccc2)c2cc(N)ccc2c2ccc(N)cc21 [ethidium]
ATPase stimulation in proteoliposomes; also ethidium efflux from L. lactis cells: Wild-type EfrEF efficiently expels ethidium from the cell
